# Measurements as given in ChEMBL document CHEMBL1131286, “Design and synthesis of m1-selective muscarinic agonists: (R)-(-)-(Z)-1-Azabicyclo[2.2.1]heptan-3-one, O-(3-(3'-methoxyphenyl)-2-propynyl)oxime maleate (CI-1017), a functionally m1-selective muscarinic agonist” (J Med Chem, 1998).
# The source made the active and inactive calls. No cut-off for these calls is given here.
# Key:
# [1] = molecular target: Muscarinic acetylcholine receptor; test: Muscarinic acetylcholine receptor binding assay was conducted using [3H]cis-methyldioxolane (CMD) to label agonist sites in membrane preparations from rat neocortex
# [2] = molecular target: T1, Muscarinic acetylcholine receptor M1 (Homo sapiens, UniProt P11229); test: biochemical; type: cell-based, CHO
# T1 sequence (P11229 whole entry): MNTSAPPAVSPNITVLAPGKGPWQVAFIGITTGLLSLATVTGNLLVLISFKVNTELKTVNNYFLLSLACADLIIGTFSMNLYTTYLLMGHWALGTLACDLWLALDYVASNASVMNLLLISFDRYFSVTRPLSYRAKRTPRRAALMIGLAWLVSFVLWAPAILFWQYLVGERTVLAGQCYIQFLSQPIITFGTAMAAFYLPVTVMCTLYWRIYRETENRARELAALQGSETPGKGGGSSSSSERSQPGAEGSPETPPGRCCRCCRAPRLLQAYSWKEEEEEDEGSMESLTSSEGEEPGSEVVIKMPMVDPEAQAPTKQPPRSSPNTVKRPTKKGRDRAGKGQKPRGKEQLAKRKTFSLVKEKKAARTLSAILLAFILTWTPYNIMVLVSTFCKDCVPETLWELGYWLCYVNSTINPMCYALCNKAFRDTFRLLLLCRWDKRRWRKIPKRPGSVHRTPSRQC
# Description: Binding affinity of [3H]-QNB to CHO cells expressing human Muscarinic acetylcholine receptor M1
# [3] = molecular target: Muscarinic acetylcholine receptor; test: Muscarinic acetylcholine receptor binding assay was conducted using [3H]quinuclidinyl benzilate (QNB) to label antagonist sites in membrane preparations from rat neocortex
# [4] = molecular target: T2, Muscarinic acetylcholine receptor M2 (Homo sapiens, UniProt P08172); test: Binding affinity of [3H]QNB to CHO cells expressing human Muscarinic acetylcholine receptor M2; type: cell-based
# T2 sequence (P08172 whole entry): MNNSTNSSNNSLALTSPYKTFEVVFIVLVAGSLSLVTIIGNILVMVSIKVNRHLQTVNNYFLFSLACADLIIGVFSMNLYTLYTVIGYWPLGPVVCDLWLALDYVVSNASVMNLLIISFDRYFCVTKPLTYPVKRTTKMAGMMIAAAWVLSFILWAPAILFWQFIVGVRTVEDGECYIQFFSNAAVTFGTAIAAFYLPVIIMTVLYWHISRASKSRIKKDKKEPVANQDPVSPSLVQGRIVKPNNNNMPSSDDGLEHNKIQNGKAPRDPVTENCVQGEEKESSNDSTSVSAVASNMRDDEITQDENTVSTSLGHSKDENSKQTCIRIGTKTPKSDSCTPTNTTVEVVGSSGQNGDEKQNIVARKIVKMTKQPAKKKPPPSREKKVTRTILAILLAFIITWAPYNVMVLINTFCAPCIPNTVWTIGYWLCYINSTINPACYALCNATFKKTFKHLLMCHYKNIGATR
# [5] = molecular target: Muscarinic acetylcholine receptor (Rattus norvegicus) (UniProt P08482+P08483+P08485+P08911+P10980); test: Ratio of QNB binding to CMD binding was evaluated; type: protein assay
# [6] = molecular target: T3, Muscarinic acetylcholine receptor M4 (Homo sapiens) (UniProt P08173); test: Maximal response obtained for each drug normalized to effect of carbachol in Muscarinic acetylcholine receptor M4; type: functional
# T3 sequence (whole entry): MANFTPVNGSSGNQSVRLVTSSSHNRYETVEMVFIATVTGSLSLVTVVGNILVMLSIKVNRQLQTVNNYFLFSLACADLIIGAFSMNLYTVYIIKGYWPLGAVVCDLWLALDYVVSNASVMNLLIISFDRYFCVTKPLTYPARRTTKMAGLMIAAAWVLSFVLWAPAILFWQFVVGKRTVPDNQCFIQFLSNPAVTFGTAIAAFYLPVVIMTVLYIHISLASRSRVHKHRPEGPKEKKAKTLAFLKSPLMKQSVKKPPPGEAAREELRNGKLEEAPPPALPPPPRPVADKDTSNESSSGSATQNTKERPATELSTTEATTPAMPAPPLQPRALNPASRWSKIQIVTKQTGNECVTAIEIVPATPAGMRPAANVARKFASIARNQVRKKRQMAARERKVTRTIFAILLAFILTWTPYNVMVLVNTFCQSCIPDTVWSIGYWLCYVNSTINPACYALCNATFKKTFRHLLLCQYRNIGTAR
# [7] = molecular target: Muscarinic acetylcholine receptor M3 (Homo sapiens) (UniProt P20309); test: Maximal response obtained for each drug normalized to effect of carbachol in Muscarinic acetylcholine receptor M3; type: functional
# [8] = molecular target: T4, Muscarinic acetylcholine receptor M2 (Homo sapiens) (UniProt P08172); test: Amplification of transfected NIH3T3 cells was measured in Muscarinic acetylcholine receptor M2 required to produce half maximal effect; type: functional, cell-based
# T4 sequence (whole entry): T2 sequence (P08172 whole entry)
# [9] = molecular target: Muscarinic acetylcholine receptor M3 (Homo sapiens) (UniProt P20309); test: Stimulations of inositol phosphate(PI) accumulation in transfected CHO cells in Muscarinic acetylcholine receptor M3 values are the maximal response obtained from the compound tested at 100 uM normalized to the effect of carbachol.; type: functional, cell-based
# [10] = molecular target: T5, Muscarinic acetylcholine receptor M5 (Homo sapiens) (UniProt P08912); test: Maximal response obtained for each drug normalized to effect of carbachol in Muscarinic acetylcholine receptor M5; type: functional
# T5 sequence (whole entry): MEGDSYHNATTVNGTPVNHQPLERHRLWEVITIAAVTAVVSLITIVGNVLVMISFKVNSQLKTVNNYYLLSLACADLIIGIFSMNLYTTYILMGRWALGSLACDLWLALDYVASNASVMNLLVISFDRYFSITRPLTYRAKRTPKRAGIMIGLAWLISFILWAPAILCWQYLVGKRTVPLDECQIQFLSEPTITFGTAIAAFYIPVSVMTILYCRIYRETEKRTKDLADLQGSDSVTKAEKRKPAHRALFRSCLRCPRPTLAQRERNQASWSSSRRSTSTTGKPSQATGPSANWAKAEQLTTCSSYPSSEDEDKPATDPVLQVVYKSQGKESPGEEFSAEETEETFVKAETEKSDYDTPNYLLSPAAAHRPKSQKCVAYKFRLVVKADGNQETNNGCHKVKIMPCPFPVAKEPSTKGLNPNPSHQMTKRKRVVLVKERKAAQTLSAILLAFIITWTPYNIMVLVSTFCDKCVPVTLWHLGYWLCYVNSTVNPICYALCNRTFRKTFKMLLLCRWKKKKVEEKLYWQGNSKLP
# [11] = molecular target: T5, Muscarinic acetylcholine receptor M5 (Homo sapiens); test: Amplification of transfected NIH3T3 cells was measured in Muscarinic acetylcholine receptor M5 required to produce half maximal effect; type: functional, cell-based
# [12] = molecular target: T5, Muscarinic acetylcholine receptor M5 (Homo sapiens); test: Stimulations of inositol phosphate(PI) accumulation in transfected CHO cells in Muscarinic acetylcholine receptor M5 values are the maximal response obtained from the compound tested at 100 uM normalized to the effect of carbachol.; type: functional, cell-based
# [13] = molecular target: T4, Muscarinic acetylcholine receptor M2 (Homo sapiens); test: Maximal response obtained for each drug normalized to effect of carbachol in Muscarinic acetylcholine receptor M2; type: functional
# [14] = molecular target: T4, Muscarinic acetylcholine receptor M2 (Homo sapiens); test: Reversal of forskolin-stimulated accumulation of […] in transfected CHO cells, against Muscarinic acetylcholine receptor M2; Not active up to 1 mM; type: functional, cell-based
# [15] = molecular target: T3, Muscarinic acetylcholine receptor M4 (Homo sapiens); test: Amplification of transfected NIH3T3 cells was measured in Muscarinic acetylcholine receptor M4 required to produce half maximal effect; type: functional, cell-based
# [16] = molecular target: T3, Muscarinic acetylcholine receptor M4 (Homo sapiens); test: Reversal of forskolin-stimulated accumulation of […] in transfected CHO cells, against Muscarinic acetylcholine receptor M4; type: functional, cell-based; settings: concentration not given here
# [17] = molecular target: T6, Muscarinic acetylcholine receptor M1 (Homo sapiens) (UniProt P11229); test: Maximal response obtained for each drug normalized to effect of carbachol in Muscarinic acetylcholine receptor M1; type: functional
# T6 sequence (whole entry): T1 sequence (P11229 whole entry)
# [18] = molecular target: T6, Muscarinic acetylcholine receptor M1 (Homo sapiens); settings: NIH3T3
# [19] = molecular target: T6, Muscarinic acetylcholine receptor M1 (Homo sapiens); settings: CHO
# [20] = molecular target: Muscarinic acetylcholine receptor M3 (Homo sapiens) (UniProt P20309); settings: NIH3T3
# Description: Amplification of transfected NIH3T3 cells was measured in Muscarinic acetylcholine receptor M3 required to produce half maximal effect
# [21] = molecular target: Muscarinic acetylcholine receptor M3 (Homo sapiens) (UniProt P20309); test: Inositol phosphate(PI) accumulation in CHO cells expressing Muscarinic acetylcholine receptor M3 as maximal response at 100 uM relative to carbachol; type: functional, cell-based
# [22] = molecular target: T5, Muscarinic acetylcholine receptor M5 (Homo sapiens); test: Inositol phosphate(PI) accumulation in CHO cells expressing Muscarinic acetylcholine receptor M5 as maximal response at 100 uM relative to carbachol; type: functional, cell-based
# [23] = molecular target: T6, Muscarinic acetylcholine receptor M1 (Homo sapiens); test: Stimulation of inositol phosphate(PI) accumulation in CHO cells expressing Muscarinic acetylcholine receptor M1 as maximal response at 100 uM relative to carbachol; type: functional, cell-based
# [24] = molecular target: T5, Muscarinic acetylcholine receptor M5 (Homo sapiens); test: Stimulations of inositol phosphate(PI) ccumulation in transfected CHO cells in Muscarinic acetylcholine receptor M5 values are the maximal response obtained from the compound tested at 100 uM normalized to the effect of carbachol.; type: functional, cell-based
# [25] = molecular target: T5, Muscarinic acetylcholine receptor M5 (Homo sapiens); settings: CHO; 100 uM
# [26] = molecular target: T3, Muscarinic acetylcholine receptor M4 (Homo sapiens); settings: NIH3T3
# [27] = molecular target: T4, Muscarinic acetylcholine receptor M2 (Homo sapiens); settings: CHO
# Description: Binding affinity expressed in IC50 labelled by [3H]QNB in CHO cells expressing human Muscarinic acetylcholine receptor M2
# Muscarinic acetylcholine receptor M3 (Homo sapiens), sequence (P20309 whole entry, looked up): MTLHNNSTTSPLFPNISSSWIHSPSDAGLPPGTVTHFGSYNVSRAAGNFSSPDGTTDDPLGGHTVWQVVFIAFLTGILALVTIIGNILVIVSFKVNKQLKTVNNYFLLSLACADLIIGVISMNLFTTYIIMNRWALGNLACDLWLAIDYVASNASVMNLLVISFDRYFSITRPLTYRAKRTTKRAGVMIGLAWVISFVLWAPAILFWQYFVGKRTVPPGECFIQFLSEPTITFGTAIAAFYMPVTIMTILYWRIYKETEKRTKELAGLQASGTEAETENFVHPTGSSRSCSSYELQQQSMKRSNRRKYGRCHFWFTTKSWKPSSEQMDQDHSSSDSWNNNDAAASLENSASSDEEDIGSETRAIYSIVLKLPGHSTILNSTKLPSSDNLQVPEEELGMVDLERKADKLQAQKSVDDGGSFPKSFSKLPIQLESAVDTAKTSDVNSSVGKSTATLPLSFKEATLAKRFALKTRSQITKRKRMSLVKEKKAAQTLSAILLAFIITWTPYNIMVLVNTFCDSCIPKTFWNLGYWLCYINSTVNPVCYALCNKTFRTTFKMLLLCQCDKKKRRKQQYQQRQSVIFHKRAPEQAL
SMILES,IC50 [2] [µM],IC50 [4] [µM],CCh [22] [%],CCh [23] [%],IC50 [1] [µM],IC50 [3] [µM],Ratio [5],also measured
C#C/C(C)=C/CO/N=C1\CN2CCC1C2 (centres undefined),2.59,6.01,,,0.00429,2.06,480,
COc1cccc(C#CCO/N=C2\CN3CC[C@@H]2C3)c1,,,,,,,,CCh [6]: 72%; CCh [7]: 87%; ED50 [8]: 1.28 µM; Stimulation [9]: 10.4%; CCh [10]: 104%; ED50 [11]: 0.868 µM; Stimulation [12]: 12.3%; CCh [13]: 92%; ED50 [14]: inactive; ED50 [15]: 0.051 µM; inhibition [16]: 1.6%; CCh [17]: 41%; ED50 [18]: 0.042 µM; ED50 [19]: 1 µM; ED50 [20]: 0.865 µM
C(#Cc1ccsc1)CO/N=C1\CN2CCC1C2 (centres undefined),4.84,15.2,13,54,0.0165,2.69,163,CCh [21]: 19%
C#C/C=C/CO/N=C1\CN2CCC1C2 (centres undefined),0.216,0.519,,,0.0347,13.8,398,
C=CCO/N=C1\CN2CCC1C2 (centres undefined),4.05,10.8,,,0.052,4.77,91.7,
Fc1ccc(C#CCO/N=C2\CN3CCC2C3)cc1 (centres undefined),5.46,27.2,13,57,,,204,CCh [21]: 10%
COc1cccc(C#CCO/N=C2\CN3CC[C@H]2C3)c1,,,,,,,,CCh [6]: 65%; CCh [7]: 57%; ED50 [8]: 1.53 µM; Stimulation [9]: 5.2%; CCh [10]: 60%; ED50 [11]: 2.59 µM; Stimulation [12]: 1.9%; CCh [13]: 33%; CCh [17]: 51%; ED50 [18]: 1.6 µM; ED50 [19]: 3.7 µM; ED50 [20]: 4.57 µM
C#CCO/N=C1\CN2CCC1C2 (centres undefined),4.89,6.03,42,95,0.0035,4.35,1240,
CO/N=C1\CN2CCC1C2 (centres undefined),26.9,16.8,,,0.0181,24.2,1340,
COc1ccc(C#CCO/N=C2\CN3CCC2C3)cc1 (centres undefined),10.6,84.4,,89,,,119,CCh [21]: 2%; CCh [24]: 3%
C#CCC#CCO/N=C1\CN2CCC1C2 (centres undefined),8.83,8.07,,,0.022,8.834,402,
C[N+](C)(C)CCOC(N)=O,,,,,,,,ED50 [11]: 1.4 µM; Stimulation [12]: 100%; inhibition [16]: 6.3%; ED50 [25]: 2.7 µM; ED50 [26]: 0.1 µM; ED50 [27]: 0.27 µM
Clc1ccc(C#CCO/N=C2\CN3CCC2C3)cc1 (centres undefined),4.01,24.7,0,48,,,119,
C#CCC#CCC#CCO/N=C1\CN2CCC1C2 (centres undefined),,,,,0.00804,0.958,119,
C#C/C(C)=C\CO/N=C1\CN2CCC1C2 (centres undefined),1.58,1.9,,,0.00102,0.806,790,
C(#Cc1cccs1)CO/N=C1\CN2CCC1C2 (centres undefined),1.62,8.9,,86,0.0135,2.33,173,
O=[N+]([O-])c1cccc(C#CCO/N=C2\CN3CCC2C3)c1 (centres undefined),15.1,46.6,,,,,227,

# Further lines, with some results ahead:
IC50 [2] [µM],IC50 [4] [µM],CCh [22] [%],CCh [23] [%],SMILES,IC50 [1] [µM],IC50 [3] [µM],Ratio [5],also measured
14.1,38.6,,,Cc1ccc(C#CCO/N=C2\CN3CCC2C3)cc1 (centres undefined),,,124,
1.09,7.93,,,C/C(C#Cc1ccccc1)=C\CO/N=C1\CN2CCC1C2 (centres undefined),,,7.93,
9.85,47.9,9,54,Fc1cccc(C#CCO/N=C2\CN3CCC2C3)c1 (centres undefined),,,132,CCh [21]: 12%
1.12,4.01,4,32,Clc1ccccc1C#CCO/N=C1\CN2CCC1C2 (centres undefined),,,107,CCh [21]: 6%
16.6,69.3,,,COc1ccccc1C#CCO/N=C1\CN2CCC1C2 (centres undefined),,,80.7,
4.03,20.8,6,45,Fc1ccccc1C#CCO/N=C1\CN2CCC1C2 (centres undefined),,,160,CCh [21]: 2%
